This is an account of results in patent US20260256926A1, “BIFACIAL PEPTIDE NUCLEIC ACID PROBES AND METHODS OF USING THEREOF” (Ohio State Innovation Foundation, priority 2022, published 2026).

The structures appear in SMILES notation.

The subject of data set [1] is tandem NCP sites (2×2 internal bulges) in dsRNA. The experiment in a line: Tandem NCP RNA library screen. The data set is classed as binding. The following applies: 4 μM probe, 2 μM RNA duplex. The procedure: (§1) Fluorescence Measurements. Samples for screening were prepared as solutions with 50 mM HEPES (pH 7.5), 100 mM NaCl, 2 μM dsDNA/dsRNA, 2 μM probe (4 μM probe with tandem mismatch). Prior to use, nucleic acids were annealed (95° C./5 min, slow cool to RT over 2 h) to pre-form the duplex. Prepared samples were incubated at room temperature for 30 min before measuring fluorescence (Thermo Fisher Nanodrop 3300, excitation/emission=470/522 nm). For each measurement, 2 μl of sample was applied to the center of the nanodrop probe. All fluorescence values are the average of triplicate measurements, starting from fresh sample preparation. Error bars indicate standard deviation. The relative intensity (turn-on) was calculated using the equation below.

Data set [2] relates to duplex nucleic acid substrates bearing single abasic, single NCP, and tandem NCP sites. The experiment in a line: Fluorogenic probe library screen, overall. The format is binding. The following applies: 2 μM probe, 2 μM duplex. The procedure:
as §1

For data set [3] the following is noted: cited from earlier work.
The conditions of data set [4]: parent dye free in solution; cited from earlier work.

Consider `Oc1nc(O)nc(O)n1` [CA], for which, in data set [1], the “targeting of AG/CU internal bulge” value is “could be targeted”. In addition, the “binding in the abasic or single NCP screens” value in data set [2] is “did not show any binding”.
Regarding `Nc1nc(=O)[nH]c(=O)[nH]1` [ammelide], the pKa in data set [3] is listed as ~ 6.9.
Turning to `O=c1[nH]c(=O)[nH]c(=O)[nH]1` [cyanuric acid], in data set [3], the pKa is on record as ~ 6.9.
Consider `CN1C(=Cc2cc[n+](C)c3ccccc23)Sc2ccccc21` [thiazole orange], for which the “quantum yield in solution” value in data set [4] is given as ~ 10^−4.
